How the values were obtained:
recombinant CTD = target: T1, recombinant CTD (Homo sapiens, UniProt P07339); test: Degradation assay of internally quenched fluorescent Aβ peptides with cathepsin D; format: in vitro ADME; details: 10 pmol, 5 mU recombinant CTD, 100 mM sodium acetate pH 5.0, 37 °C, fluorescence ex 485 / em 520 nm, mean ± SD, two independent experiments (n = 10)
T1 construct: purchased Sigma
Experimental: Therefore, we investigated whether the pE-modified Aβ is more resistant to lysosomal degradation. To this end, a degradation assay with the major lysosomal hydrolase CTD was performed. For this purpose, we used internally quenched fluorescent Aβ peptides. Degradation of the peptides removes the quencher and restores the fluorescent signal (Reits et al. [2003]), thus allowing analysis of degradation over time by monitoring the increase in fluorescence. […] To investigate the effect of aggregation on degradation, we used pre-aggregated Aβ1-40 and Aβ3(pE)-40 in the CTD assay. […] Upon aggregation, the overall degradation is hampered, but the observed difference between the peptides is retained.
Aβ peptides containing fluorophore and quencher were synthesized by solid phase synthesis using an Fmoc strategy at the NKI peptide facility. […] Peptides were purified by RP-HPLC and evidenced the expected molecular mass as determined by mass spectrometry.
Immediately prior to use, HFIP-treated peptide films of fluorescently labeled internally quenched Aβ were resuspended in DMSO and further diluted in PBS. […] Degradation of quenched peptides was followed by monitoring the increase in fluorescence (excitation, 485–12 nm; emission, 520 nm, Fluostar Omega) at 37 °C. Background fluorescence of peptide incubated in buffer without CTD controls was subtracted. […]

[1] = system: differentiated SK-N-SH cells; test: Lysosomal membrane permeabilization: immunofluorescent staining of CTD; format: cell-based; details: 1 μM Aβ oligomers or hydroxychloroquine, 16 h; confocal microscopy
Experimental: To investigate whether Aβ3(pE)-42 oligomers affect the integrity of the lysosomes, lysosomal membrane permeabilization (LMP) was analyzed in differentiated SK-N-SH cells. A distinctive sign of LMP is the translocation of soluble lysosomal components, from the lysosomal lumen to the cytosol (Boya et al. [2003]). Differentiated SK-N-SH cells were treated with Aβ oligomers and the leakage of cathepsin D (CTD), a soluble lysosomal enzyme, from the lysosomal lumen to the cytosol was analyzed after subcellular fractionation on Western blot and by immunofluorescent staining. Treatment with Aβ3(pE)-42 oligomers led to a decrease of CTD in the membrane fraction (which also contained the lysosomes) whereas the cytosolic CTD was increased. […] The result was confirmed by immunofluorescent staining of CTD. Untreated cells reveal a particulate staining pattern, indicative of its localization within lysosomes (Fig. 1b). […] SK-N-SH and HeLa cells were cultured in Dulbecco’s modified Eagle’s medium with GlutaMAX (Gibco BRL, Carlsbad, CA, USA) supplemented with 10 % fetal calf serum (FCS, Gibco BRL), 100 μg/ml streptomycin, and 100 U/ml penicillin. Cell lines are routinely checked for mycoplasma contamination using a specific 16S rRNA PCR-based assay; all cells used in this study were mycoplasma free. […]

[2] = system: differentiated SK-N-SH cells; test: Lysosomal membrane permeabilization: CTD in subcellular fractions, Western blot; format: cell-based; details: 1 μM oligomers, 16 h, three experiments
Experimental: To investigate whether Aβ3(pE)-42 oligomers affect the integrity of the lysosomes, lysosomal membrane permeabilization (LMP) was analyzed in differentiated SK-N-SH cells. A distinctive sign of LMP is the translocation of soluble lysosomal components, from the lysosomal lumen to the cytosol (Boya et al. [2003]). Differentiated SK-N-SH cells were treated with Aβ oligomers and the leakage of cathepsin D (CTD), a soluble lysosomal enzyme, from the lysosomal lumen to the cytosol was analyzed after subcellular fractionation on Western blot and by immunofluorescent staining. Treatment with Aβ3(pE)-42 oligomers led to a decrease of CTD in the membrane fraction (which also contained the lysosomes) whereas the cytosolic CTD was increased. […] The result was confirmed by immunofluorescent staining of CTD. Untreated cells reveal a particulate staining pattern, indicative of its localization within lysosomes (Fig. 1b).
SK-N-SH and HeLa cells were cultured in Dulbecco’s modified Eagle’s medium with GlutaMAX (Gibco BRL, Carlsbad, CA, USA) supplemented with 10 % fetal calf serum (FCS, Gibco BRL), 100 μg/ml streptomycin, and 100 U/ml penicillin. Cell lines are routinely checked for mycoplasma contamination using a specific 16S rRNA PCR-based assay; all cells used in this study were mycoplasma free. […]

T1 sequence (P07339 65-412): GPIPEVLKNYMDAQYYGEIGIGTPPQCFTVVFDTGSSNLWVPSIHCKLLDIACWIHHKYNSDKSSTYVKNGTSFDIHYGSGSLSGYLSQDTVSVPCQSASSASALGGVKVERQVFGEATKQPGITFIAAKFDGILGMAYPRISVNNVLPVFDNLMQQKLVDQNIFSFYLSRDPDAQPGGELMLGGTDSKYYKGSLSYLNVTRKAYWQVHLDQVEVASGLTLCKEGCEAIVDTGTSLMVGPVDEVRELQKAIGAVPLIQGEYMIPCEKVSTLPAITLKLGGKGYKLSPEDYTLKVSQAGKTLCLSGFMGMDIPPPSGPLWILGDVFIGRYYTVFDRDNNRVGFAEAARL

Row | Substance | time to reach the half-max fluorescence of degradation (t 1/2) (recombinant CTD; not pre-aggregated, internally quenched fluorescent peptide (Oregon green 488 at aa 22, dabcyl at aa 12)) | time to reach the half-max fluorescence of degradation (t 1/2) (recombinant CTD; pre-aggregated peptide, internally quenched fluorescent peptide) | CTD staining pattern (release from lysosomes to cytoplasm) [1] | CTD in the membrane fraction (containing the lysosomes) [2] | cytosolic CTD [2]
1 | Aβ1-40: internally quenched fluorescent Aβ peptide, Oregon green 488 at amino acid 22 and dabcyl at amino acid 12; pre-aggregated or not | 48.9 ± 4.3 min | 63.6 ± 10.0 min |  |  | 
2 | Aβ1-42: synthetic amyloid beta 1-42 purchased from Anaspec, used as oligomers |  |  | same pattern but to a lesser extent | did not change | did not change

From paper PMC3636379, “Intracellular accumulation of aggregated pyroglutamate amyloid beta: convergence of aging and Aβ pathology at the lysosome” (Age, 2012)
